Experiment: refractive index (Na D-line) (dimensionless); xn = mol fraction of the nth substance listed
Conditions: Liquid, Standard Abbe refractometry

CC(=O)OCc1ccccc1 [benzyl ethanoate] + OCc1ccccc1
refractive index, 101 kPa
Conditions | 293.15 K | 303.15 K | 313.15 K | 323.15 K
x1 = 0.05 | 1.53821 | 1.5339 | 1.52962 | 1.52532
x1 = 0.1001 | 1.53584 | 1.53143 | 1.52715 | 1.52278
x1 = 0.1502 | 1.53352 | 1.52903 | 1.52471 | 1.5203
x1 = 0.2001 | 1.53127 | 1.52673 | 1.52235 | 1.51791
x1 = 0.25 | 1.52907 | 1.52449 | 1.52007 | 1.5156
x1 = 0.3 | 1.52689 | 1.52231 | 1.51785 | 1.51335
x1 = 0.3498 | 1.5248 | 1.52022 | 1.51571 | 1.51118
x1 = 0.4001 | 1.52279 | 1.51819 | 1.51362 | 1.50908
x1 = 0.45 | 1.52083 | 1.51621 | 1.5116 | 1.50704
x1 = 0.5 | 1.51893 | 1.51428 | 1.50964 | 1.50506
x1 = 0.5501 | 1.5171 | 1.51239 | 1.50774 | 1.50314
x1 = 0.6001 | 1.5153 | 1.51057 | 1.5059 | 1.50128
x1 = 0.65 | 1.51352 | 1.50881 | 1.5041 | 1.49946
x1 = 0.6999 | 1.51182 | 1.50711 | 1.50237 | 1.49771
x1 = 0.7502 | 1.51014 | 1.50545 | 1.5007 | 1.49598
x1 = 0.8 | 1.50852 | 1.50383 | 1.49906 | 1.49434
x1 = 0.85 | 1.50696 | 1.50227 | 1.49748 | 1.49276
x1 = 0.9 | 1.50544 | 1.50075 | 1.49596 | 1.49124
x1 = 0.95 | 1.50396 | 1.49926 | 1.4945 | 1.48976
x1 = 1 | 1.50245 | 1.49776 | 1.49309 | 1.48834

OCc1ccccc1 [benzenemethanol] + CCO
refractive index, 100.8 kPa
Conditions | 293.15 K | 303.15 K | 313.15 K | 323.15 K
x2 = 0 | 1.54049 | 1.53635 | 1.53215 | 1.52796
x2 = 0.05 | 1.53607 | 1.53175 | 1.52743 | 1.52308
x2 = 0.1 | 1.53119 | 1.52681 | 1.5225 | 1.51807
x2 = 0.1504 | 1.52584 | 1.5215 | 1.51718 | 1.51273
x2 = 0.1999 | 1.52041 | 1.51591 | 1.51156 | 1.50721
x2 = 0.2502 | 1.51444 | 1.51002 | 1.5056 | 1.50123
x2 = 0.3003 | 1.50804 | 1.50367 | 1.49935 | 1.49494
x2 = 0.3499 | 1.50154 | 1.49716 | 1.49265 | 1.48825
x2 = 0.3998 | 1.49454 | 1.49014 | 1.48568 | 1.48127
x2 = 0.45 | 1.48707 | 1.4826 | 1.47818 | 1.47378
x2 = 0.5001 | 1.4791 | 1.47469 | 1.4703 | 1.46589
x2 = 0.55 | 1.47074 | 1.46632 | 1.46191 | 1.45755
x2 = 0.5999 | 1.46176 | 1.45731 | 1.45296 | 1.44855
x2 = 0.65 | 1.4522 | 1.4477 | 1.44333 | 1.43892
x2 = 0.6997 | 1.44199 | 1.43754 | 1.43309 | 1.4287
x2 = 0.75 | 1.43095 | 1.42651 | 1.42212 | 1.41775
x2 = 0.7999 | 1.41922 | 1.41479 | 1.4104 | 1.40607
x2 = 0.8496 | 1.40661 | 1.40202 | 1.39761 | 1.39329
x2 = 0.8998 | 1.39275 | 1.38825 | 1.38389 | 1.37963
x2 = 0.95 | 1.37776 | 1.37331 | 1.36905 | 1.36475
